Results published in PMC4558462, “A new small molecule inhibitor of soluble guanylate cyclase” (Bioorganic & Medicinal Chemistry, 2015).
Substitutions are numbered along the chain they refer to. “Also recorded” adds a separate entry of the source.

Assays:
[1] = molecular target: T1, sGC (Homo sapiens, UniProt Q02108+Q02153); experiment: Earlier laboratory observation of effect on sGC (data not shown); format: biochemical; settings: low millimolar concentrations
T1 sequence (Q02108 1-690): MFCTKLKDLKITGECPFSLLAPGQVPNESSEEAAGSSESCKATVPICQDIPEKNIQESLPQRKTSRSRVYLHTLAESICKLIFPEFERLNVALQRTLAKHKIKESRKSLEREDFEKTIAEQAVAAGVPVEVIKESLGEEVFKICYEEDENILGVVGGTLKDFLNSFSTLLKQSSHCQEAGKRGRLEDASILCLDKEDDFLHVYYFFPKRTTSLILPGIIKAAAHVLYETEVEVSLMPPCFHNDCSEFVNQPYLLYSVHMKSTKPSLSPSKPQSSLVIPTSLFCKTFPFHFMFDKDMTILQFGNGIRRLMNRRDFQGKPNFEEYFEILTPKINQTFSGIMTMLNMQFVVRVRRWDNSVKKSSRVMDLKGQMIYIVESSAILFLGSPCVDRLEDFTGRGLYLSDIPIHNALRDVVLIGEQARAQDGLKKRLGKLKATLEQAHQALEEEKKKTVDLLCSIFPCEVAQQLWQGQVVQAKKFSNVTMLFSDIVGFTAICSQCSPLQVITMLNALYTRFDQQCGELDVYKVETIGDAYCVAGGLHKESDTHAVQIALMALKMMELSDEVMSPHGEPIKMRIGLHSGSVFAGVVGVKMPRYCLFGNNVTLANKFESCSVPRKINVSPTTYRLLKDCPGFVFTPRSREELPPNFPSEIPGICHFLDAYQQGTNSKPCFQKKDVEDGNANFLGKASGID
T1 sequence (Q02153 1-619): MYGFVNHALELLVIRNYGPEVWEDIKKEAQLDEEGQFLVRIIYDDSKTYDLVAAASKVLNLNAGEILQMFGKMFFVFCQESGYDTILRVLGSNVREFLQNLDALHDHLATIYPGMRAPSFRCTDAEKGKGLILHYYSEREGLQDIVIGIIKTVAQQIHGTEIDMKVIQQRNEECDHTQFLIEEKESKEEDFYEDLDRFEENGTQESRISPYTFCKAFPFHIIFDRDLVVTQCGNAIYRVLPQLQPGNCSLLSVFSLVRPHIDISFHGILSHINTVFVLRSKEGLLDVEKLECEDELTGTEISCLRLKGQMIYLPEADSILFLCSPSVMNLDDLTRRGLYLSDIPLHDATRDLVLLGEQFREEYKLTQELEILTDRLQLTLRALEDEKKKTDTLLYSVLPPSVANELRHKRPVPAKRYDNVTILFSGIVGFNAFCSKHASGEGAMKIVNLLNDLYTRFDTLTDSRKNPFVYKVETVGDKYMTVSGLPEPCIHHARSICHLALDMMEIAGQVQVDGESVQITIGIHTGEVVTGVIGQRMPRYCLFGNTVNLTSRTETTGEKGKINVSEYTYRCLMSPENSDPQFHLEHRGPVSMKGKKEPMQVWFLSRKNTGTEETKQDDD
Protocol: In the course of studies in our laboratory we observed activation of sGC with the anti-epileptic drug lamotrigine 2 and inhibition with lamotrigine analogues sipatrigine 3 and 4, all at low millimolar concentrations (data not shown) (Fig. 1). These compounds were used as the starting point for a screening study to find new inhibitors of sGC. The strategy was to conduct several rounds of similarity searching and screening to identify the best inhibitors. Some synthetic studies were conducted on the best hit to explore the structure–activity relationships.

[2] = molecular target: T2, sGCcat (Homo sapiens, UniProt Q02108+Q02153); experiment: SPR binding to catalytic domain of sGC; settings: for sGCcat (SPR) binding norm. resp. (RU): Biacore T200, 25 °C; for binding to sGCcat (in words): discussion of Table 1
T2 construct: a smaller construct of the catalytic domain (sGCcat)
T2 sequence (Q02108 481-608 limits assumed): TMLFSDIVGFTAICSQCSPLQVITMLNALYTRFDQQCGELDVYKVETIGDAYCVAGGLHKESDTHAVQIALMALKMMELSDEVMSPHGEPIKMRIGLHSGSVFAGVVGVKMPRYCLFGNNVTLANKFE
T2 sequence (Q02153 421-554 limits assumed): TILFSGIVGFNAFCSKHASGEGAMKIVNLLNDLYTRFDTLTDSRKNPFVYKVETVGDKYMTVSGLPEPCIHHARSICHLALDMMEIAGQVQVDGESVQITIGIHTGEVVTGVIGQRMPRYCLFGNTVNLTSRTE
Protocol: We have previously described a surface plasmon resonance-based assay for the detection of binding of small molecules to full-length sGC and a smaller construct of the catalytic domain (sGCcat).[24] This assay was used to measure the binding of the compounds to sGCcat.[24] […] The position of the hydroxyl group can be changed whilst retaining binding strength and activity.
Surface plasmon resonance (SPR) experiments were performed with a Biacore T200 instrument at 25 °C. Data processing and analysis were performed using BIAevaluation software and Scrubber2. All sensorgrams were double referenced by subtracting the response in a reference flowcell and a blank sample. Materials and methods used were the same as previously published.[24]

[3] = molecular target: T3, purified bovine lung sGC (Bos taurus, UniProt P16068+P19687); experiment: Soluble guanylate cyclase activity assay (cGMP radioimmunoassay); format: biochemical; settings: discussion of Table 1
T3 construct: screened at 100 μM against purified bovine lung sGC; purchased Enzo lifesciences ALX-202-039-C005; host or cells: bovine lung
T3 sequence (P19687 1-691): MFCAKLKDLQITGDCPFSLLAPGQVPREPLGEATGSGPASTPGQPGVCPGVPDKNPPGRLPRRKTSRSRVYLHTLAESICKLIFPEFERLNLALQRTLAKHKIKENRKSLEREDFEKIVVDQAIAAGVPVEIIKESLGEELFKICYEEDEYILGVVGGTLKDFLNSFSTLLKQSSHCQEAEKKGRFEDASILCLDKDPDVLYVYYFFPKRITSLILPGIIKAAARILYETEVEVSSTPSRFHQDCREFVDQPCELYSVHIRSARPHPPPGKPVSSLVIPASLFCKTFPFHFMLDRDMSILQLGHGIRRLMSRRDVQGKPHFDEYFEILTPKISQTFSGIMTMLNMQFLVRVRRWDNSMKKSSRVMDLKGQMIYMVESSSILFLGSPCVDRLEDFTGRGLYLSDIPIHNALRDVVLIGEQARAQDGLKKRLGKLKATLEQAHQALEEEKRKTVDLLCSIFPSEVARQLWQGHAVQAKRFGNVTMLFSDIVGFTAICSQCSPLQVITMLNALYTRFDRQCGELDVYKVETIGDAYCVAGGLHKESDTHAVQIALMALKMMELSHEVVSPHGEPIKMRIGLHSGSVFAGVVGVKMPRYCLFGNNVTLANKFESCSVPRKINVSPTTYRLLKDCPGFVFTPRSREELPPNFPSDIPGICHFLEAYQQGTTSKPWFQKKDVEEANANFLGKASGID
T3 sequence (P16068 1-619): T1 sequence (Q02153 1-619) with E126D, L290S, S574T, K615E, D618E, D619N
Protocol: Virtual screening was performed by similarity searches using MACCS fingerprints at 85% and 75% Tanimoto of commercial libraries and the selected compounds were screened at 100 μM against purified bovine lung sGC using diethylamine NONOate (30 nM) as the NO donor. Enzyme activity was determined by measuring cGMP production using a standard cGMP [^3H] radioimmunoassay.[21,22]
[…] Compounds were added at 100 μM prior to adding the NO donor DEA/NO (30 nM) or clamped NO concentrations. cGMP generation was allowed to proceed for two minutes, after which aliquots were withdrawn and inactivated by boiling in 50 mM Tris, 4 mM EDTA buffer. cGMP formation was measured by a standard radioimmunoassay.

| effect on sGC [1] | Compound | sGCcat (SPR) binding norm. resp. (RU) [2] [RU] | binding to sGCcat (in words) [2] | inhibition of sGC enzyme activity (in words) [3] |
| --- | --- | --- | --- | --- |
| activation | Nc1nnc(-c2cccc(Cl)c2Cl)c(N)n1 [Compound 2, lamotrigine] | – | – | – |
| inhibition | CN1CCN(c2ncc(-c3cc(Cl)cc(Cl)c3Cl)c(N)n2)CC1 [Compound 3, sipatrigine] | – | – | – |
| inhibition | Nc1nc(N)c(-c2cc(Cl)cc(Cl)c2Cl)c(C(F)(F)F)n1 [Compound 4] | – | – | – |
| – | N#Cc1ccc2nc(Nc3ccc(O)cc3)c(Nc3ccc(O)cc3)nc2c1 [Compound 23, 2,3-Bis((4-hydroxyphenyl)amino)quinoxaline-6-carbonitrile] | 4.5 ± 2 | bind to the receptor | do not inhibit the enzyme activity |
| – | N#Cc1ccc2nc(Nc3cccc(O)c3)c(Nc3cccc(O)c3)nc2c1 [Compound 24, 2,3-Bis((3-hydroxyphenyl)amino)quinoxaline-6-carbonitrile] | 10.5 ± 0.5 | bind to the receptor | do not inhibit the enzyme activity |
| – | Oc1ccc(Nc2nc3ccc(Cl)cc3nc2Nc2ccc(O)cc2)cc1 [Compound 25, 4,4′-((6-Chloroquinoxaline-2,3-diyl)bis(azanediyl))diphenol] | 9.7 ± 0.5 | bind to the receptor | do not inhibit the enzyme activity |
| – | Oc1cccc(Nc2nc3ccc(Cl)cc3nc2Nc2cccc(O)c2)c1 [Compound 26, 3,3′-((6-Chloroquinoxaline-2,3-diyl)bis(azanediyl))diphenol] | 9.0 ± 0.4 | bind to the receptor | do not inhibit the enzyme activity |
| – | Nc1ccc2nc(Nc3ccc(O)cc3)c(Nc3ccc(O)cc3)nc2c1 [Compound 29, 4,4′-((6-Aminoquinoxaline-2,3-diyl)bis(azanediyl))diphenol] | 9.9 ± 0.2 | higher binding; also recorded: bind to the receptor | do not inhibit the enzyme activity |
